In patent publication US12521439B2, “Methods and materials for modulating Nrf2 pathway” (The General Hospital Corporation, priority 2019, dated 2026):

Key:
[1] = test system: HO1 transcripts in MDA-MB-231 tumors; assay: HO1 mRNA in fat pad breast tumors in vivo; set-up: species or system mice; details: 7.5 mg/kg i.p. for four consecutive days
Description: Real-time qRT-PCR: Total RNA isolation from cultured cells was performed using RNeasy kit (Qiagen), followed by reverse transcription with OneScript cDNA synthesis Kit (ABM). mRNA expression of different genes was then analyzed by quantitative PCR using PowerUp SYBR Green Master Mix (Applied Biosystems) and performed using a QuantStudio3 real-time PCR system (Applied Biosystems). Primer sequences for HO1, NQO1, TXNRD2 were obtained from the MGH primer bank and were as follows: HO1 Forward, 5′-[…]-3′ and reverse 5′-[…]-3′; NQO1 Forward 5′-[…]-3′ and reverse 5′-[…]-3′ and Txnrd2 forward 5′-[…]-3 and reverse 5′-[…]. Oligonucleotides were synthesized by the CCIB DNA Core Facility at Massachusetts General Hospital. Expression of human GAPDH was used to mRNA normalization and relative mRNA expression was calculated using the comparative Ct method.
In vivo Tumor Models: Animal experiments performed by our laboratory were approved by the Massachusetts General Hospital Subcommittee on Research Animal Care. Female athymic nude mice (6-8 weeks) were used in all studies with the exception of pharmacokinetics analysis. For brain tumors xenograft model, GBM8 cells (1×10^5 cells/mouse) stably expressing Fluc were stereotactically implanted into the left striatum of animals. […] Tumor volumes were measured using a caliper and calculated according to the following formula: volume=(width)^2×length/2. […]

CT2A mouse glioma cells = assay: Cytokine/chemokine array of glioma cell lysates; type: cell-based; details: OBT 4 μM, 24 hrs
Description: To evaluate the effect of OBT on glioma secretome, CT2A mouse glioma cells were treated with OBT (4 μM) for 24 hrs and analyzed cell lysates by cytokine/chemokine array. GBM cells responded to OBT, Nrf2 and ROS induction, by activating several cytokines known to be involved in immune cell chemotaxis and migration (CCL2, CXCL10, IL-6). […] These innate immunity-related factors may directly contribute to control tumor growth or shape the development of adaptive immunity. Thus, OBT can induce factors that induces activation of tumor immune response.

Keap1 = Keap1 (Homo sapiens, UniProt Q14145); assay: Keap1 immunoblotting / immunoprecipitation; type: cell-based; set-up: Keap1 protein levels in U87 cells treated with the indicated doses of OBT for 8 hours; endogenous in cells; host or cells: U87, MDA-MB-231 (endogenous); 293T and MDA-MB-231 also transfected with HA-Keap1
Sequence of Keap1 (Q14145 whole entry): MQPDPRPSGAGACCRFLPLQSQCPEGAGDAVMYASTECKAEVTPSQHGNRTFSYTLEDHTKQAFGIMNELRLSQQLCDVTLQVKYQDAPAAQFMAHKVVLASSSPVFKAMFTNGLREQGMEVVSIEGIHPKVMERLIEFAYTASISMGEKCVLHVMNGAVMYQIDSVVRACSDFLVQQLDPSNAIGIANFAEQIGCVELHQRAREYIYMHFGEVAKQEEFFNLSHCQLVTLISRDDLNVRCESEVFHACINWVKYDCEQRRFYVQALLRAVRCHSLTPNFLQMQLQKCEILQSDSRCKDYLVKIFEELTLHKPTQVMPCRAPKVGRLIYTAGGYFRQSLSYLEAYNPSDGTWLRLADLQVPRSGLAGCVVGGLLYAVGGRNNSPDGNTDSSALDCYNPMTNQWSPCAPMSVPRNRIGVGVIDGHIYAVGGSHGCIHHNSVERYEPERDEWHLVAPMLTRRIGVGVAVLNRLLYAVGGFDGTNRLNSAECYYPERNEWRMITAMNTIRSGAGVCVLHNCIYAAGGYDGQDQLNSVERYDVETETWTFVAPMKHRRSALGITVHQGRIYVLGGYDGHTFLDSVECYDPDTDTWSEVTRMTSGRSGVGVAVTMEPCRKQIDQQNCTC
Description: Immunoblotting and Immunoprecipitation analysis: Antibodies against PDI, GAPDH, HA-tag, Ubiquitin, Keap1 and beta-actin (Cell Signaling) as well as secondary Horseradish peroxidase (HRP) conjugated antibodies: sheep anti-mouse IgG-HRP and donkey antirabbit IgG-HRP (Amersham Pharmacia Biotech) were used in this study. For protein expression analysis, cells were lysed in RIPA buffer (150 mM NaCl, 50 mM TRIS, pH 8.0, 1% NP-40, 0.5% deoxycholate, 0.1% SDS) supplemented with 1× protease inhibitors cocktail (Roche). Proteins were quantified using a Bradford protein determination assay (Bio-Rad) followed by electrophoresis in 10% NuPAGE Bis-Tris gels (Life Technologies) and transfer to nitrocellulose membranes (Bio-Rad). Membranes were incubated overnight with antibodies in 1-5% non-fat milk powder in PBS/0.5% TWEEN. Proteins were detected with SuperSignal West Pico Chemiluminescent Substrate (Pierce). For immunoprecipitation assays, cells were lysed in RIPA buffer supplemented with protease inhibitors and 2 mM N-ethylmaleimide. Cell lysates were pre-cleared with protein A agarose beads (Cell Signaling) and incubated with anti-HA antibody with gentle rocking overnight at 4° C. followed by incubation with protein A agarose beads and subsequent washing and elution steps. Electrophoresis, transfer and immunoblot analysis was performed as described above.

[2] = Pharmacokinetics after single i.p. administration; type: in vivo, male Swiss Albino mice
Description: Pharmacokinetics studies: These studies were performed by SAI Lifesciences using Male Swiss Albino mice. OBT was resuspended in a solution formulation of 10% DMA, 10% EtOH, 10% PEG400 in 70% of (2-hydroxypropyl)-[…] (HPβCD). OBT was administered by intraperitoneal (i.p.) injection at 7.5 mg/kg. Blood samples were collected from mice, at 0, 0.08, 0.25, 0.5, 1, 2, 4, 8 and 24 hr. Immediately after blood collection, plasma was harvested by centrifugation and stored until analysis. After collection of blood, brain samples were collected from each mouse at 0.5, 4 and 24 h. Tissue samples were homogenized using ice-cold phosphate buffer saline (pH7.4) and homogenates were stored until analysis. Total homogenate volume was three times the tissue weight. Plasma samples were quantified by LC-MS/MS method (LLOQ=1.00 ng/mL) for plasma and brain.

cancer cells = assay: Cancer cell death with OBT, JQ1, OBT-JQ1; type: cell-based; details: OBT combined with JQ1, FIG. 22
Description: Cell viability: Cells were plated in 96-well plates and treated with the corresponding compounds. Cell viability was measured by adding 25 μl/well of CellTiter-Glo (Promega) followed by 10 minutes incubation and transfer to a white 96-well plate. Bioluminescence was quantified using Synergy HTX multimode reader (Biotek).

ubiquitination of Keap1 (Keap1; 293T, OBT 2 μM, 6 hours, IP anti-HA): resulted in ubiquitination of Keap1
OBT-mediated degradation of Keap1 with CUL3 downregulation or proteasome inhibitor (Keap1; MDA-MB-231, OBT 3 μM, 6 hours): prevented
time at which Keap1 restored to physiological levels (Keap1; U87): 24 h
earliest time of Keap1 decrease (Keap1; U87, following treatment with OBT): 4 h
Keap1 protein levels (Keap1; U87, 1 μM time course, indicated doses 8 hours): time- and dose-dependent decrease
Vss relative to normal volume of total body water (0.7 L/kg) ([2]; 7.5 mg/kg i.p.): 3 fold
systemic plasma clearance ([2]; 7.5 mg/kg i.p.): high
time up to which plasma concentrations were detected ([2]; 7.5 mg/kg i.p., LC-MS/MS): up to 24 hrs
blood-brain barrier penetration ([2]; intact BBB): efficiently penetrates
Kp at 0.5 h ([2]; male, Swiss Albino, mouse, brain, ip, 7.5 mg/kg, 0.5 hr after single i.p. dose, read-out: brain-to-plasma ratio): 0.27
Kp at 4 h ([2]; male, Swiss Albino, mouse, brain, ip, 7.5 mg/kg, 4 hrs after single i.p. dose, read-out: brain-to-plasma ratio): 0.5
Tmax ([2]; male, Swiss Albino, mouse, ip, plasma, 7.5 mg/kg i.p.): 30 min
half-life ([2]; male, Swiss Albino, mouse, plasma, ip, 7.5 mg/kg i.p., read-out: terminal plasma half-life): 24 min
SMILES: COC1=CC(=O)C(O)=C/C1=C/C=C/c1ccccc1 [OBT, (Z)-2-hydroxy-5-methoxy-4-((E)-3-phenylallylidene)cyclohexa-2,5-dien-1-one]
upregulation of HO1 transcripts in the tumor [1]: 7 fold
cytokines involved in immune response modulation (CD40, CXCL2, CCL5, CXCL-10, IL-6) (CT2A mouse glioma cells): induced secretion
interaction with JQ1 (cancer cells): synergizes
